# Reference: patent US10294202B2, “Pyrrolidinones as herbicides” (FMC Corporation, priority 2013, dated 2019)
# Legend:
# [1] = tested on: barnyardgrass; assay: Test C flooded paddy test; assay type: in vivo, Echinochloa crus-galli; details: Flood
# In short: (§1)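 Plants at the 2-leaf stage in pots flooded to 3 cm were treated by applying compound directly to the paddy water, with depth held throughout. After 13 to 15 days in a greenhouse, response was rated visually against controls on a 0 (no effect) to 100 (complete control) scale.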
# [2] = tested on: galium; assay: Test A postemergence herbicide test; assay type: in vivo, Galium aparine; details: for Plant response rating, Galium: 125 g ai/ha, 0 to 100 scale; for Galium plant response rating (0 to 100 scale, 0 is no effect, 100 is complete control): 500 g ai/ha
# In short: (§2)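 Visual injury rating, 0 (no effect) to 100 (complete control), versus untreated controls ~10 days after treatment. Postemergence spray applied at one- to two-leaf stage, plants 2–10 cm tall, potted in loam soil/sand. Greenhouse-held.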
# [3] = tested on: barnyardgrass; assay: Test A pre-/postemergence herbicide test; assay type: in vivo, Echinochloa crus-galli
# In short: (§3)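 Planted in loam–sand blend; treated the same day preemergence by directed soil spray, while separately grown plants at one- to two-leaf stage got postemergence spray. Compared visually with untreated controls after approximately 10 days; 100 means complete control.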
# [4] = tested on: corn; assay: Test A pre-/postemergence herbicide test; assay type: in vivo, Zea mays; details: Postemergence
# In short: as §3
# [5] = tested on: kochia; assay: Test A pre-/postemergence herbicide test; assay type: in vivo, Kochia scoparia; details: for Plant response rating, Kochia: 0 to 100 scale
# In short: as §3
# [6] = tested on: rice; assay: Test C flooded paddy test; assay type: in vivo, Oryza sativa; details: Flood
# In short: as §1
# [7] = tested on: wheat; assay: Test A pre-/postemergence herbicide test; assay type: in vivo, Triticum aestivum; details: Postemergence; for Plant response rating, Wheat: 125 g ai/ha, 0 to 100 scale; for Wheat plant response rating (0 to 100 scale, 0 is no effect, 100 is complete control): 500 g ai/ha
# In short: as §3
# [8] = tested on: sedge, umbrella; assay: Test C flooded paddy test; assay type: in vivo, Cyperus difformis; details: Flood
# In short: as §1
# [9] = tested on: ducksalad; assay: Test C flooded paddy test; assay type: in vivo, Heteranthera limosa; details: Flood
# In short: as §1
# [10] = tested on: ryegrass, Italian; assay: Test A pre-/postemergence herbicide test; assay type: in vivo, Lolium multiflorum; details: for Plant response rating, Ryegrass, Italian: 0 to 100 scale
# In short: as §3
# [11] = tested on: giant foxtail; assay: Test A pre-/postemergence herbicide test; assay type: in vivo, Setaria faberii; details: for Plant response rating, Foxtail, Giant: 0 to 100 scale
# In short: as §3
# [12] = tested on: ragweed; assay: Test A pre-/postemergence herbicide test; assay type: in vivo, Ambrosia elatior; details: for Plant response rating, Ragweed: 0 to 100 scale
# In short: as §3
# [13] = tested on: pigweed; assay: Test A pre-/postemergence herbicide test; assay type: in vivo, Amaranthus retroflexus; details: for Plant response rating, Pigweed: 0 to 100 scale
# In short: as §3
# [14] = tested on: blackgrass; assay: Test A postemergence herbicide test; assay type: in vivo, Alopecurus myosuroides
# In short: as §2
# [15] = 125 g ai/ha, scale of 0 to 100 where 0 is no effect and 100 is complete control, 13 to 15 days
# [16] = 0 no effect, 100 complete control
# [17] = 125 g ai/ha, visual rating, 0 to 100 scale, 0 no effect, 100 complete control, approximately 10 days, preemergence
# [18] = 125 g ai/ha, 0 to 100 scale, 0 no effect, 100 complete control
# [19] = 500 g ai/ha, 0 to 100 scale (0 no effect, 100 complete control)
# [20] = 125 g ai/ha, visual rating, 0 no effect, 100 complete control, approximately 10 days, preemergence
# [21] = Postemergence, 125 g ai/ha, 0 no effect, 100 complete control
# [22] = 250 g ai/ha, scale of 0 to 100 where 0 is no effect and 100 is complete control, 13 to 15 days
# [23] = 0 is no effect, 100 is complete control
# [24] = 125 g ai/ha, 0 to 100 scale, 0 is no effect, 100 is complete control
# [25] = Postemergence, 125 g ai/ha, 0 is no effect, 100 is complete control
# [26] = preemergence, 500 g ai/ha, 0 is no effect and 100 is complete control
structure (smiles),measurement,setting,value
O=C1NCC(c2cccc(C(F)(F)F)c2)C1C(=O)Nc1nc(C(F)(F)F)co1 (racemic) [Compound 114],"Plant response rating, Barnyardgrass",[1]; [15],0
same,"Plant response rating, Barnyardgrass","[1]; 250 g ai/ha, scale 0 to 100",0
same,"Plant response rating, Barnyardgrass","[1]; 500 g ai/ha, scale 0 to 100",0
same,"Plant response rating, Barnyardgrass","[1]; 1000 g ai/ha, scale 0 to 100",0
same,"Plant response rating, Galium",[2]; [16],0
same,"Galium plant response rating (0 to 100 scale, 0 is no effect, 100 is complete control)",[2],20
same,"Plant response rating, Barnyardgrass",[3]; [17],20
same,"Plant response rating, Barnyardgrass","[3]; Postemergence, 125 g ai/ha, 0 to 100 scale, 0 no effect, 100 complete control",20
same,"Plant response rating, Barnyardgrass","[3]; Postemergence, 500 g ai/ha, 0 to 100 scale (0 no effect, 100 complete control)",60
same,"Plant response rating, Barnyardgrass","[3]; preemergence, 500 g ai/ha, 0 to 100 scale (0 no effect, 100 complete control)",50
same,"Plant response rating, Corn",[4]; [18],0
same,"Plant response rating, Corn",[4]; [19],20
same,"Plant response rating, Kochia",[5]; [20],0
same,"Plant response rating, Kochia",[5]; [21],0
same,"Kochia plant response rating (0 to 100 scale, 0 is no effect, 100 is complete control)","[5]; Postemergence, 500 g ai/ha",20
same,"Plant response rating, Kochia","[5]; preemergence, 500 g ai/ha",0
same,"Plant response rating, Rice",[6]; [15],0
same,"Plant response rating, Rice","[6]; 250 g ai/ha, scale 0 to 100",0
same,"Plant response rating, Rice","[6]; 500 g ai/ha, scale 0 to 100",0
same,"Plant response rating, Rice","[6]; 1000 g ai/ha, scale 0 to 100",0
same,"Plant response rating, Wheat",[7]; [16],0
same,"Wheat plant response rating (0 to 100 scale, 0 is no effect, 100 is complete control)",[7],20
same,"Plant response rating, Sedge, Umbrella",[8]; [15],0
same,"Plant response rating, Sedge, Umbrella","[8]; 250 g ai/ha, scale 0 to 100",0
same,"Plant response rating, Sedge, Umbrella","[8]; 500 g ai/ha, scale 0 to 100",0
same,"Plant response rating, Sedge, Umbrella","[8]; 1000 g ai/ha, scale 0 to 100",0
same,"Plant response rating, Ducksalad",[9]; [15],20
same,"Plant response rating, Ducksalad","[9]; 250 g ai/ha, scale 0 to 100",30
same,"Plant response rating, Ducksalad","[9]; 500 g ai/ha, scale 0 to 100",70
same,"Plant response rating, Ducksalad","[9]; 1000 g ai/ha, scale 0 to 100",80
same,"Plant response rating, Ryegrass, Italian",[10]; [20],0
same,"Plant response rating, Ryegrass, Italian",[10]; [21],0
same,"Ryegrass, Italian plant response rating (0 to 100 scale, 0 is no effect, 100 is complete control)","[10]; Postemergence, 500 g ai/ha",60
same,"Plant response rating, Ryegrass, Italian","[10]; preemergence, 500 g ai/ha",30
same,"Plant response rating, Foxtail, Giant",[11]; [20],20
same,"Plant response rating, Foxtail, Giant",[11]; [21],40
same,"Foxtail, Giant plant response rating (0 to 100 scale, 0 is no effect, 100 is complete control)","[11]; Postemergence, 500 g ai/ha",70
same,"Plant response rating, Foxtail, Giant","[11]; preemergence, 500 g ai/ha",70
same,"Plant response rating, Ragweed",[12]; [20],0
same,"Plant response rating, Ragweed",[12]; [21],0
same,"Ragweed plant response rating (0 to 100 scale, 0 is no effect, 100 is complete control)","[12]; Postemergence, 500 g ai/ha",0
same,"Plant response rating, Ragweed","[12]; preemergence, 500 g ai/ha",0
same,"Plant response rating, Pigweed",[13]; [20],0
same,"Plant response rating, Pigweed",[13]; [21],0
same,"Pigweed plant response rating (0 to 100 scale, 0 is no effect, 100 is complete control)","[13]; Postemergence, 500 g ai/ha",0
same,"Plant response rating, Pigweed","[13]; preemergence, 500 g ai/ha",0
same,"Plant response rating, Blackgrass",[14]; [18],20
same,"Plant response rating, Blackgrass",[14]; [19],30
O=C1NCC(c2cccc(C(F)(F)F)c2)C1C(=O)Nc1cccc(F)c1 (racemic) [Compound 208],"Plant response rating, Barnyardgrass",[1]; [15],0
same,"Plant response rating, Barnyardgrass",[1]; [22],20
same,"Plant response rating, Barnyardgrass","[1]; 500 g ai/ha, scale 0 to 100",45
same,"Plant response rating, Barnyardgrass","[1]; 1000 g ai/ha, scale 0 to 100",65
same,"Plant response rating, Galium",[2]; [23],0
same,"Galium plant response rating (0 to 100 scale, 0 is no effect, 100 is complete control)",[2],50
same,"Plant response rating, Barnyardgrass",[3]; [17],40
same,"Plant response rating, Barnyardgrass","[3]; Postemergence, 125 g ai/ha, 0 to 100 scale, 0 is no effect, 100 is complete control",50
same,"Barnyardgrass plant response rating (0 to 100 scale, 0 is no effect, 100 is complete control)","[3]; Postemergence, 500 g ai/ha",80
same,"Plant response rating, Barnyardgrass","[3]; preemergence, 500 g ai/ha, 0 to 100 scale, 0 is no effect and 100 is complete control",90
same,"Plant response rating, Corn",[4]; [24],0
same,"Corn plant response rating (0 to 100 scale, 0 is no effect, 100 is complete control)",[4]; 500 g ai/ha,50
same,"Plant response rating, Kochia",[5]; [20],0
same,"Plant response rating, Kochia",[5]; [25],0
same,"Kochia plant response rating (0 to 100 scale, 0 is no effect, 100 is complete control)","[5]; Postemergence, 500 g ai/ha",60
same,"Plant response rating, Kochia",[5]; [26],20
same,"Plant response rating, Rice",[6]; [15],0
same,"Plant response rating, Rice",[6]; [22],0
same,"Plant response rating, Rice","[6]; 500 g ai/ha, scale 0 to 100",0
same,"Plant response rating, Rice","[6]; 1000 g ai/ha, scale 0 to 100",15
same,"Plant response rating, Wheat",[7]; [23],0
same,"Wheat plant response rating (0 to 100 scale, 0 is no effect, 100 is complete control)",[7],40
same,"Plant response rating, Sedge, Umbrella",[8]; [15],0
same,"Plant response rating, Sedge, Umbrella",[8]; [22],0
same,"Plant response rating, Sedge, Umbrella","[8]; 500 g ai/ha, scale 0 to 100",0
same,"Plant response rating, Sedge, Umbrella","[8]; 1000 g ai/ha, scale 0 to 100",0
same,"Plant response rating, Ducksalad",[9]; [15],0
same,"Plant response rating, Ducksalad",[9]; [22],45
same,"Plant response rating, Ducksalad","[9]; 500 g ai/ha, scale 0 to 100",45
same,"Plant response rating, Ducksalad","[9]; 1000 g ai/ha, scale 0 to 100",100
same,"Plant response rating, Ryegrass, Italian",[10]; [20],0
same,"Plant response rating, Ryegrass, Italian",[10]; [25],0
same,"Ryegrass, Italian plant response rating (0 to 100 scale, 0 is no effect, 100 is complete control)","[10]; Postemergence, 500 g ai/ha",40
same,"Plant response rating, Ryegrass, Italian",[10]; [26],20
same,"Plant response rating, Foxtail, Giant",[11]; [20],80
same,"Plant response rating, Foxtail, Giant",[11]; [25],90
same,"Foxtail, Giant plant response rating (0 to 100 scale, 0 is no effect, 100 is complete control)","[11]; Postemergence, 500 g ai/ha",90
same,"Plant response rating, Foxtail, Giant",[11]; [26],90
same,"Plant response rating, Ragweed",[12]; [20],0
same,"Plant response rating, Ragweed",[12]; [25],0
same,"Ragweed plant response rating (0 to 100 scale, 0 is no effect, 100 is complete control)","[12]; Postemergence, 500 g ai/ha",20
same,"Plant response rating, Ragweed",[12]; [26],0
same,"Plant response rating, Pigweed",[13]; [20],0
same,"Plant response rating, Pigweed",[13]; [25],0
same,"Pigweed plant response rating (0 to 100 scale, 0 is no effect, 100 is complete control)","[13]; Postemergence, 500 g ai/ha",0
same,"Plant response rating, Pigweed",[13]; [26],0
same,"Plant response rating, Blackgrass",[14]; [24],20
same,"Blackgrass plant response rating (0 to 100 scale, 0 is no effect, 100 is complete control)",[14]; 500 g ai/ha,60
